{"source": "patent US10596124B2", "about": "“Lipid nanoparticle compositions and methods as carriers of cannabinoids in standardized precision-metered dosage forms” (NanoSphere Health Sciences, LLC, priority 2015, dated 2020)", "origin": "cited, not measured here", "settings": "intranasal", "data": [{"smiles": "C=C(C)[C@@H]1CCC(C)=C[C@H]1c1c(O)cc(CCCCC)cc1O", "note": "[CBD, cannabidiol]", "values": [{"measurement": "time to absorption into the systemic circulation", "value": "≤ 10", "unit": "min"}]}]}
